Results taken from patent US9062041B2 (Bayer Intellectual Property GmbH, priority 2011, dated 2015).

Tests used:
[1] = test system: female cynomolgus monkeys (Macaca Fascicularis); assay: In-vivo action on fertility in non-human primates (mating study); conditions: 6 months, 10 mg/kg (Example 17 once daily, Example 56 twice daily)
Procedure: 4.4 In-Vivo Action on Fertility in Non-Human Primates (Cynomolgus):
In order to study the effect of substances on fertility, mating studies can be performed in monkeys (Jensen et al. Contraception 81 (2010) 165-171). For this, the test substances are administered to female cynomolgus monkeys (Macaca Fascicularis) which are being kept in groups, then the animals are mated with a male animal. Matings are checked for by sperm detection in daily vaginal smears. Pregnancies resulting therefrom are identified by hormone determinations and ultrasound examinations. Through the changes in the serum oestradiol concentrations during the cycle, (rise before the midcycle LH peak), the fertile phase within a cycle of the individual animals can be determined Matings in this fertile period are described as “timed matings” (matings in the fertile phase). Apart from the absolute number of pregnancies occurring, the effect on the fertility can also be expressed as pregnancies per “timed matings”.
To test the action of EP2 receptor antagonists on fertility in monkeys, Examples 17 and 56 according to the invention were administered over 6 months, dissolved in 0.5 ml castor oil. Example 17 was administered once daily at a dosage of 10 mg/kg (n=10 animals), while Example 56 was administered twice daily at a dosage of 10 mg/kg (n=9 animals). Only the vehicle was administered to a control group (n=10 animals). In the first month of the treatment, no male animal was placed with the female animals. After this, female and male animals were kept together over 5 months, with detection of pregnancies and cycle monitoring.

human PGD receptor = target: T1, human PGD receptor (Homo sapiens, UniProt Q13258); assay: cAMP antagonism test on the human prostaglandin D receptor (HTRF cAMP detection); assay type: cell-based; conditions: selectivity towards hDP, IC50 measured by cAMP antagonism test
T1 sequence (Q13258 1-359): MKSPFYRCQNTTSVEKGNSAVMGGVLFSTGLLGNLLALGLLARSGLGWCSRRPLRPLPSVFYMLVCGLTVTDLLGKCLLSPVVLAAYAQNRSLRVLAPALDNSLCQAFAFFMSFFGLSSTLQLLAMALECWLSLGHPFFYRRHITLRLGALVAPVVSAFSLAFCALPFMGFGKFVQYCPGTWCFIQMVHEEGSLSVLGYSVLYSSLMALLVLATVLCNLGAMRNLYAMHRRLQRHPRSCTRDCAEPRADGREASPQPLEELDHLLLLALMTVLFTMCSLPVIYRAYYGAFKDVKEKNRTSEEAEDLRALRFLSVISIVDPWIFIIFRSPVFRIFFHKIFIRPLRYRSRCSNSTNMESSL
In short: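 Cells pre-mixed with cAMP-d2 were preincubated with compound (0.8 nM–16.5 μM) for 20 min at RT, then stimulated with 3× PGD2 solution (6 nM, in PBS-IBMX) for 30 min at RT. After lysis (20 min), HTRF read at 665/620 nm; antagonism seen as rise in FRET ratio.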

[2] = target: EP2 subtype of the human PGE2 receptor (Homo sapiens, UniProt P43116); assay: cAMP antagonism test on the human EP2 receptor (HTRF cAMP detection); assay type: cell-based; conditions: hEP2 receptor, read-out: Antagonism hEP2 IC50
In short: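 Cells expressing human EP2 preincubated 20 min at RT with compound (0.8 nM–16.5 μM), then stimulated 60 min with PGE2 (3× solution 1.5 nM) in PBS-IBMX. After 20 min lysis, cAMP measured by competitive HTRF with cAMP-d2 and Eu cryptate anti-cAMP antibody (665/620 nm ratio).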

[3] = target: EP4 subtype of the human PGE2 receptor (Homo sapiens, UniProt P35408); assay: cAMP antagonism test on the human EP4 receptor (HTRF cAMP detection); assay type: cell-based; conditions: selectivity towards hEP4, IC50 measured by cAMP antagonism test
In short: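 Cells expressing human EP4 preincubated 20 min at RT with compound (0.8 nM–16.5 μM), then stimulated with PGE2 (0.3 nM in 3× solution, with IBMX) 60 min at RT. After lysis, cAMP measured by HTRF competition (665/620 nm ratio); antagonism seen as rise in FRET signal.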

cumulus-oocyte complexes = assay: Cumulus expansion test in vitro; assay type: cell-based, mice (strain: B6D2F1); conditions: Mus musculus, 0.3 μM PGE2 for stimulation
Procedure: 4.2. Cumulus Expansions Test In Vitro In immature female mice (strain: B6D2F1 from Charles River), at an age of 14-18 days, the folliculogenesis was induced by a single administration (intraperitoneal) of 10 IU of PMSG (pregnant mare serum gonadotropin; Sigma G-4877, Lot 68H0909). 47-50 hours after the injection, the ovaries were removed and the cumulus-oocyte complexes removed. At this stage, the cumulus complex is not yet expanded. The cumulus-oocyte complexes were now incubated for 20-24 hours with prostaglandin E2 (PGE) (0.3 μM), vehicle control (ethanol) or test substances. Medium: alpha-MEM medium with 0.1 mM IBMX, pyruvate (0.23 mM), glutamine (2 mM), pen/strep 100 IU/ml pen. and 100 μg/ml strep.), HSA (8 mg/ml) and foetal bovine serum (FBS, 10%). The cumulus expansion was then established through the subdivision into four stages (after Vanderhyden et al. Dev Biol. 1990 August; 140(2):307-317).

Sequence of EP4 subtype of the human PGE2 receptor (P35408 whole entry): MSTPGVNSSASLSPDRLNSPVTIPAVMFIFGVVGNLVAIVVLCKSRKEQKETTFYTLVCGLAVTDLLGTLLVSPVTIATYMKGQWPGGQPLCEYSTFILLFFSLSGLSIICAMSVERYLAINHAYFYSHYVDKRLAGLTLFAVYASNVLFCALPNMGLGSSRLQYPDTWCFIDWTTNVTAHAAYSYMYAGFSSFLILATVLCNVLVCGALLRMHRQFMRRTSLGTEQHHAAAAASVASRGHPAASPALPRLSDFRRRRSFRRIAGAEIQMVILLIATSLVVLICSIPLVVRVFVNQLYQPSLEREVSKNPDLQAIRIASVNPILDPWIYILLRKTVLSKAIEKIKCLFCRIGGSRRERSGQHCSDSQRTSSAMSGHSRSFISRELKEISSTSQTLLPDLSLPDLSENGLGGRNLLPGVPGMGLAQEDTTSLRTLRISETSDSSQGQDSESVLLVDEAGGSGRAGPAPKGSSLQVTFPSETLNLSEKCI
Sequence of EP2 subtype of the human PGE2 receptor (P43116 whole entry): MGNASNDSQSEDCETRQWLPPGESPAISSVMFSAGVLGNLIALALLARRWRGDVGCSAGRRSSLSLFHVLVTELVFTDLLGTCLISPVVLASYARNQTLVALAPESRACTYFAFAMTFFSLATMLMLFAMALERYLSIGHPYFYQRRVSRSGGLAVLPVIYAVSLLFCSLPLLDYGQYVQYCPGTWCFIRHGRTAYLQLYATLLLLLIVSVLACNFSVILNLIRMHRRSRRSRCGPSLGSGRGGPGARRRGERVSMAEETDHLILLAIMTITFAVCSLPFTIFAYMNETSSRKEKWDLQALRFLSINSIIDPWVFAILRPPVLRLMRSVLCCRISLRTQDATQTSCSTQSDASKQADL

COCCNC(=O)c1ccc2nn(CC3CCN(C(=O)c4ccc(Cl)cc4)CC3)cc2c1C [Example 56, 2-{[1-(4-chlorobenzoyl)piperidin-4-yl]methyl}-N-(2-methoxyethyl)-4-methyl-2H-indazol-5-carboxamide]
% Pregnancies/"timed mating" [1]: 12%
Pregnancies [1]: 2
Selectivity hEP2/hDP (human PGD receptor): xxx (xxx > 100)
IC50 [2]: 13.1 nM
Selectivity hEP2/hEP4 [3]: xxx (xxx > 100)

COCCNC(=O)c1ccc2nn(CC3CCN(C(=O)c4ccc(-c5ccc(F)cc5)cc4)CC3)cc2c1C [Example 5, 2-({1-[(4′-fluorobiphenyl-4-yl)carbonyl]piperidin-4-yl}methyl)-N-(2-methoxy-ethyl)-4-methyl-2H-indazol-5-carboxamide]
Selectivity hEP2/hDP (human PGD receptor): xxx (xxx > 100)
IC50 [2]: 5.11 nM
Selectivity hEP2/hEP4 [3]: xxx (xxx > 100)
inhibition at 1 µM (cumulus-oocyte complexes; 1 μM, read-out: % reduction at 1 μM (reduction in the cumulus expansion)): 59%
inhibition at 0.5 µM (cumulus-oocyte complexes; 0.5 μm, read-out: % reduction at 0.5 μm (reduction in the cumulus expansion)): 56%
